Bridge positions count the residues as written; N and C are the ends. Square brackets hold non-standard residues; d marks the D form. Ends that are not written are not given here. I, II: the chains in the order shown. * marks the point of attachment. StBu = CC(C)(C)S*
Legend:
[1] = tested on: Staphylococcus aureus; test: Mutant library in vitro inhibition activity, S. aureus; format: cell-based; details: relative growth after 18 hours of co-incubation
Description: (§1) A library of 340 mutants of original lytic peptide (killing domain in synbody) was synthesized with single amino acid substitutions. Mutants along with original peptide as positive control were tested in vitro for inhibition activity against S. aureus and Pseudomonas aeruginosa. […] Ratio reflect the improvement in activity as “Mutant[Relative growth]/Orignal[Relative growth].

[2] = tested on: Pseudomonas aeruginosa; test: Mutant library in vitro inhibition activity, Pseudomonas aeruginosa; format: cell-based; details: relative growth after 18 hours of co-incubation
Description: as §1

[3] = tested on: B. subtilis; format: cell-based
[4] = tested on: S. aureus; format: cell-based
[5] = tested on: S. mutans; format: cell-based
[6] = In vivo characterization: immune response and acute toxicity in mice; parameters: species or system CD1 mice
From the text: FIG. 3. Graph of immune response cytoxicity data of a composition of the invention in CD1 mice.
(§2) GAL80 synbody was used as a negative control with no activity against S. aureus. […] Synbody was abbreviated as “SB”.

[7] = tested on: human cells; format: cell-based
From the text: FIG. 2. Graph of cytoxicity data of a composition of the invention in human tissue culture studies.
as §2

[8] = tested on: P. aeruginosa; format: cell-based
[9] = tested on: S. aureus; test: Solution inhibition assay, S. aureus; format: cell-based; details: negative control synbody
Description: The advantage of the synbody “DR-RW” over the single peptides can be noticed in the range 10-25 uM.

RWRRHKHFKRPHRKHKF [Mut 334]
ratio, Mutant[Relative growth]/Orignal[Relative growth] [1]: 2.37

RWRRHKRFKRPHRKHKR [Mut 122]
ratio, Mutant[Relative growth]/Orignal[Relative growth] [2]: 3.121
ratio, Mutant[Relative growth]/Orignal[Relative growth] [1]: 17.45

RWRRHKHFKRMHRKHKR [Mut 213]
ratio, Mutant[Relative growth]/Orignal[Relative growth] [2]: 1.185

RWRRWKHFKRPHRKHKR [Mut 98]
ratio, Mutant[Relative growth]/Orignal[Relative growth] [2]: 1.183

RWRRHIHFKRPHRKHKR [Mut 110]
ratio, Mutant[Relative growth]/Orignal[Relative growth] [2]: 4.387

RWRRHKHFKRDHRKHKR [Mut 204]
ratio, Mutant[Relative growth]/Orignal[Relative growth] [2]: 2.107

RWRRHKVFKRPHRKHKR [Mut 140]
ratio, Mutant[Relative growth]/Orignal[Relative growth] [1]: 1.658

RWRRHKHPKRPHRKHKR [Mut 155]
ratio, Mutant[Relative growth]/Orignal[Relative growth] [1]: 2.359

RWRFHKHFKRPHRKHKR [Mut 74]
ratio, Mutant[Relative growth]/Orignal[Relative growth] [2]: 1.017

RWRRAKHFKRPHRKHKR [Mut 81]
ratio, Mutant[Relative growth]/Orignal[Relative growth] [1]: 1.525

RWRRHKWFKRPHRKHKR [Mut 138]
ratio, Mutant[Relative growth]/Orignal[Relative growth] [2]: 1.315

RWRRHKHFKRPHRKHKK [Mut 332]
ratio, Mutant[Relative growth]/Orignal[Relative growth] [1]: 2.438

RWRRHKHFRRPHRKHKR [Mut 162]
ratio, Mutant[Relative growth]/Orignal[Relative growth] [1]: 2.125

RWRRHHHFKRPHRKHKR [Mut 109]
ratio, Mutant[Relative growth]/Orignal[Relative growth] [2]: 1.395

RWRRHKHLKRPHRKHKR [Mut 151]
ratio, Mutant[Relative growth]/Orignal[Relative growth] [1]: 1.312

RWRRHVHFKRPHRKHKR [Mut 120]
ratio, Mutant[Relative growth]/Orignal[Relative growth] [2]: 3.684

RWRRNKHFKRPHRKHKR [Mut 83]
ratio, Mutant[Relative growth]/Orignal[Relative growth] [1]: 13.15

RWRRHKHFKRPYRKHKR [Mut 239]
ratio, Mutant[Relative growth]/Orignal[Relative growth] [1]: 2.12

RWRRHKd-KFKRPHRKHKR (RWRRHK[dK]FKRPHRKHKR) [Mut 125]
ratio, Mutant[Relative growth]/Orignal[Relative growth] [1]: 1.593

RWRRHKHKKRPHRKHKR [Mut 152]
ratio, Mutant[Relative growth]/Orignal[Relative growth] [1]: 2.049

RWRRHKHFKRPHRKHFR [Mut 314]
ratio, Mutant[Relative growth]/Orignal[Relative growth] [1]: 1.497

I: DRIFHKMQHKPYKIKKRGSGGGKC(StBu)-NH2 / II: RWRRHKHFKRPHRKHKRGSG (amide I:23-II:C) [Synbody]
Avg MIC ± SD, BS [3]: 14 ± 1.1 µM
Avg MIC ± SD, SA [4]: 14 ± 0.8 µM
Avg MIC ± SD, SM [5]: >100 µM
Acute toxicity ([6]; 500 ug dose): no immune response or acute toxicity
Immune response ([6]; 500 ug dose, FIG. 3): no immune response
Level of IgG, PBS versus synbody injected mice ([6]; FIG. 3): no difference detected
Cytotoxic activity [7]: no cytotoxic activity
Avg MIC ± SD, PA [8]: 22 ± 1.8 µM

LWRRHKHFKRPHRKHKR [Mut 11]
ratio, Mutant[Relative growth]/Orignal[Relative growth] [1]: 1.58

RRRRHKHFKRPHRKHKR [Mut 22]
ratio, Mutant[Relative growth]/Orignal[Relative growth] [2]: 2.073
ratio, Mutant[Relative growth]/Orignal[Relative growth] [1]: 6.1

RWRRPKHFKRPHRKHKR [Mut 95]
ratio, Mutant[Relative growth]/Orignal[Relative growth] [1]: 9.077

RWRRHKHMKRPHRKHKR [Mut 153]
ratio, Mutant[Relative growth]/Orignal[Relative growth] [1]: 2.293

RWRRHKHFKRRHRKHKR [Mut 202]
ratio, Mutant[Relative growth]/Orignal[Relative growth] [2]: 1.3565

DRIFHKMQHKPYKIKKRGSC
Avg MIC ± SD, SM [5]: >100 µM
Avg MIC ± SD, PA [8]: >100 µM

RWRRIKHFKRPHRKHKR [Mut 90]
ratio, Mutant[Relative growth]/Orignal[Relative growth] [1]: 1.747

GAL80 synbody: synbody used as a negative control with no activity against S. aureus (peptide 1 GTEKGTSGWLKTGSC; peptide 2 EGEWTEGKLSLRGSC)
Activity against S. aureus [9]: no activity

RWRRHKHFKRPHRKVKR [Mut 300]
ratio, Mutant[Relative growth]/Orignal[Relative growth] [1]: 1.453

RWRRHFHFKRPHRKHKR [Mut 114]
ratio, Mutant[Relative growth]/Orignal[Relative growth] [2]: 10.95

RWRRHGHFKRPHRKHKR [Mut 108]
ratio, Mutant[Relative growth]/Orignal[Relative growth] [2]: 1.191

RWRRFKHFKRPHRKHKR [Mut 94]
ratio, Mutant[Relative growth]/Orignal[Relative growth] [2]: 1.211

RLRRHKHFKRPHRKHKR [Mut 31]
ratio, Mutant[Relative growth]/Orignal[Relative growth] [1]: 1.633

RWRRMKHFKRPHRKHKR [Mut 93]
ratio, Mutant[Relative growth]/Orignal[Relative growth] [2]: 1.035

RWRRHRHFKRPHRKHKR [Mut 102]
ratio, Mutant[Relative growth]/Orignal[Relative growth] [2]: 1.077

RWRRHKYFKRPHRKHKR [Mut 139]
ratio, Mutant[Relative growth]/Orignal[Relative growth] [2]: 1.164
ratio, Mutant[Relative growth]/Orignal[Relative growth] [1]: 2.136

RWRRHKHFKRPHRKTKR [Mut 297]
ratio, Mutant[Relative growth]/Orignal[Relative growth] [1]: 2.339

RWRRHKHFKRFHRKHKR [Mut 214]
ratio, Mutant[Relative growth]/Orignal[Relative growth] [2]: 1.134

PWRRHKHFKRPHRKHKR [Mut 15]
ratio, Mutant[Relative growth]/Orignal[Relative growth] [1]: 1.658

RWRRHKAFKRPHRKHKR [Mut 121]
ratio, Mutant[Relative growth]/Orignal[Relative growth] [2]: 2.297

d-KWRRHKHFKRPHRKHKR ([dK]WRRHKHFKRPHRKHKR; not fully specified (some residues)) [Mut 5]
ratio, Mutant[Relative growth]/Orignal[Relative growth] [1]: 1.308

RWRRHKHFKRPHRKHKRGSC
Avg MIC ± SD, BS [3]: 20 ± 0.3 µM
Avg MIC ± SD, SA [4]: 28 ± 1.5 µM
Avg MIC ± SD, SM [5]: >100 µM
Avg MIC ± SD, PA [8]: 27 ± 2.3 µM

FWRRHKHFKRPHRKHKR [Mut 14]
ratio, Mutant[Relative growth]/Orignal[Relative growth] [1]: 1.653

RWRRHLHFKRPHRKHKR [Mut 111]
ratio, Mutant[Relative growth]/Orignal[Relative growth] [2]: 1.71

Source: patent US9309298B2, “Anti-bacterial polypeptides and pathogen specific synthetic antibodies” (priority 2011, dated 2016)
